Assay results from article PMC5234717 (Journal of Lipid Research, 2016).

Assays:
S1PL2021 [1] = target: T1, S1PL2021 (Burkholderia pseudomallei, UniProt Q63IP8)
T1 construct: gene BPSS2021

S1PL2021 [2] = target: T1, S1PL2021; remark: listed apart in the source

T1 sequence (Q63IP8 21-493 limits assumed): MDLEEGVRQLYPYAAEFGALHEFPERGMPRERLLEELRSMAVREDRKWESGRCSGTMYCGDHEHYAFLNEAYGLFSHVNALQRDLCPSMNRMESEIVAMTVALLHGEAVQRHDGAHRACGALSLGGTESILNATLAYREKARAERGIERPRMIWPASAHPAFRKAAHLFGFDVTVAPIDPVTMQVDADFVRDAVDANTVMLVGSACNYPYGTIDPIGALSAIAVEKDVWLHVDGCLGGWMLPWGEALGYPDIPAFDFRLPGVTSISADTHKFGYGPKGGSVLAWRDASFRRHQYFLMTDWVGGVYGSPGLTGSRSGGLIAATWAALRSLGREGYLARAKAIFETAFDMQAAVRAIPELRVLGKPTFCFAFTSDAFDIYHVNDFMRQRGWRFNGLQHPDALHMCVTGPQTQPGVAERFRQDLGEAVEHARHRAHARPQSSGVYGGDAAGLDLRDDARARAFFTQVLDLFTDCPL

Q: Which “UV-vis spectroscopy of PLP” value (S1PL2021 [1]) does the source give for CCCCCCCCCCCCC/C=C/[C@@H](O)[C@@H](N)CO [D-erythro sphingosine] here?
A: S1PL2021 could also bind the nonphosphorylated substrate, D-erythro sphingosine

Q: Which “X-ray crystal structure, 2.1 Å” value (S1PL2021 [2]) does the source give for Cc1ncc(COP(=O)(O)O)c(C=O)c1O [PLP] here?
A: dimer of S1PL with the PLP cofactor present as an internal aldimine with residue K271
